# Laboratory results as given in PubChem BioAssay (NCI).
# Several values for one entry are separate records, joined by “and”; a condition that tells them apart may be missing. Identical values can stand only once.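 All cell lines were grown in 96-well plates and treated with compound for 48 hours. GI50 = concentration required for 50% inhibition of growth. TGI: concentration producing complete growth inhibition.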
# Legend:
# Assay in all cases: NCI tumour cell line growth inhibition, 48 h
# SN12C renal = tested on: SN12C renal
# CAKI-1 renal = tested on: CAKI-1 renal
# NCI-H226 lung = tested on: NCI-H226 lung
# T-47D breast = tested on: T-47D breast
# SK-MEL-2 melanoma = tested on: SK-MEL-2 melanoma
# NCI-H23 lung = tested on: NCI-H23 lung
# OVCAR-8 ovarian = tested on: OVCAR-8 ovarian
# SF-268 CNS = tested on: SF-268 CNS
# KM12 colon = tested on: KM12 colon
# 786-0 renal = tested on: 786-0 renal
SMILES,GI50 (SN12C renal),TGI (SN12C renal),GI50 (CAKI-1 renal),TGI (CAKI-1 renal),GI50 (NCI-H226 lung),TGI (NCI-H226 lung),GI50 (T-47D breast) [µM],TGI (T-47D breast),GI50 (SK-MEL-2 melanoma),TGI (SK-MEL-2 melanoma),GI50 (NCI-H23 lung),TGI (NCI-H23 lung),GI50 (OVCAR-8 ovarian),TGI (OVCAR-8 ovarian),GI50 (SF-268 CNS),TGI (SF-268 CNS),GI50 (KM12 colon),TGI (KM12 colon),GI50 (786-0 renal),TGI (786-0 renal)
CCNC(=O)c1cc2c(-c3cc(C(C)(C)O)ccc3Oc3c(C)cc(F)cc3C)cn(C)c(=O)c2[nH]1,3.03 µM,16.8 µM,0.875 µM,13.2 µM,2.64 µM,14.9 µM,1.08,18 µM,2.92 µM,15 µM,1.89 µM,10.7 µM,2.54 µM,20.4 µM,3.58 µM,18.6 µM,1.87 µM,15.8 µM,1.15 µM,19.2 µM
Nc1nc(-c2ccc(F)cc2)c(-c2ccc3ncccc3n2)s1,10.1 µM,> 25 µM,9.27 µM,> 25 µM,11.8 µM,> 25 µM,4.32,> 25 µM,> 25 µM,> 25 µM,15.6 µM,> 25 µM,15.6 µM,> 25 µM,16.5 µM,> 25 µM,> 25 µM,> 25 µM,16.9 µM,> 25 µM
CN(CC(=O)N(Cc1ccc(C2CCCCC2)cc1)c1ccc(C(=O)O)c(O)c1)S(=O)(=O)c1c(F)c(F)c(F)c(F)c1F,6.74 µM,24.4 µM,5.09 µM,10.4 µM,18.6 µM,41.5 µM,8.14,27 µM,2.2 µM,4.76 µM,10.6 µM,26.9 µM,7.11 µM,20.5 µM,7.19 µM,20.9 µM,19 µM,33.7 µM,8.88 µM,23.8 µM
COc1ccc(-c2nc3ccccn3c2/C=C/C(=O)c2cc(OC)c(OC)c(OC)c2)cc1,11.4 µM,> 100 µM,8.33 µM,> 100 µM,24.1 µM,> 100 µM,2.59,14 µM,4.95 µM,> 100 µM,3.41 µM,94.1 µM,3.92 µM,> 100 µM,4 µM,> 100 µM,4.99 µM,> 100 µM,3.9 µM,> 100 µM
COc1ccc(OC)c(/C=C(/C)[N+](=O)[O-])c1,2.17 µM,5.02 µM,1.29 µM,2.77 µM,13.8 µM,27.9 µM,1.16,2.87 µM,2.16 µM,4.41 µM,1.83 µM,4.52 µM,2.13 µM,4.91 µM,2.12 µM,5.22 µM,2.28 µM,5.94 µM,1.94 µM,3.48 µM
NC(=O)c1ccc2nc(-c3ccc(Oc4ccc(Cl)cc4)cc3)[nH]c2c1,39.4 µM and 14.6 µM,75 µM and 30.2 µM,6.4 µM and 16.5 µM,39.6 µM and 49.8 µM,49.1 µM and 14 µM,75 µM and 57.6 µM,,> 75 µM and 20.7 µM,18.3 µM and 21.2 µM,75 µM and 40.2 µM,67.5 µM and 13.5 µM,75 µM and 32.7 µM,58 µM and 12.9 µM,75 µM and 34.4 µM,36.7 µM and 19.2 µM,75 µM and 46.2 µM,65 µM and 13.9 µM,75 µM and 31.3 µM,48 µM and 16.1 µM,75 µM and 39.4 µM
C[C@@H](CO)[C@@H]1CCC=C2CC[C@]3(C)[C@H](CC[C@@H]4[C@@]5(C)CCCNC(C)(C)[C@@H]5CC[C@]43C)[C@H]21,3.11 µM,12.5 µM,1.89 µM,4.25 µM,14.6 µM,35.3 µM,2.38,7.77 µM,2.08 µM,4.29 µM,3.94 µM,14.3 µM,2.02 µM,4.1 µM,4.48 µM,19.5 µM,1.97 µM,4.09 µM,1.93 µM,3.82 µM
COc1cc2c(cc1C)NC(=O)/C2=C\c1cccc(Oc2ccccc2)c1,13.2 µM,25.9 µM,19.4 µM,41.2 µM,21 µM,38.1 µM,11.4,81.4 µM,20.1 µM,47.1 µM,13.6 µM,28.3 µM,25.1 µM,> 100 µM,13.9 µM,31.5 µM,14.3 µM,34.6 µM,13.2 µM,25.9 µM
COc1cc(Nc2ccnc(NCCCNc3ccnc4cc(Cl)ccc34)n2)cc(OC)c1,2 µM,7.3 µM,1.62 µM,3.26 µM,2.5 µM,9.16 µM,1.89,4.81 µM,1.91 µM,3.54 µM,2.67 µM,10.2 µM,2.07 µM,5.65 µM,1.8 µM,3.88 µM,2.92 µM,9.46 µM,1.59 µM,3.12 µM
CCN(C(=O)c1cc(F)ccc1Oc1cncnc1N1CC2(CCN(CC3CCC(NS(=O)(=O)CC)CC3)CC2)C1)C(C)C (configuration not stated),> 100 µM,> 100 µM,> 100 µM,> 100 µM,> 100 µM,> 100 µM,> 100,> 100 µM,> 100 µM,> 100 µM,> 100 µM,> 100 µM,> 100 µM,> 100 µM,> 100 µM,> 100 µM,> 100 µM,> 100 µM,> 100 µM,> 100 µM
Nc1nc(-c2ccccc2)nc(N)c1N=O,4.51 µM,18.1 µM,4.5 µM,36.3 µM,4.87 µM,21.2 µM,4.63,23.1 µM,19.5 µM,41.6 µM,14.6 µM,41.9 µM,7.55 µM,53.7 µM,12.3 µM,39.2 µM,4.58 µM,16.9 µM,13.2 µM,27.1 µM
CC(C)CCN=C(N)c1ccc(N2CCN(c3ccc(C(N)=NCCC(C)C)cc3)CC2)cc1,7.52 µM,42.7 µM,31.4 µM,> 100 µM,17.9 µM,46.8 µM,9.54,57.9 µM,9.37 µM,> 100 µM,3.75 µM,17.8 µM,6.57 µM,> 100 µM,33.1 µM,> 100 µM,3.82 µM,16.6 µM,6.58 µM,38 µM
O=C(O)c1cccc(N=Nc2c(S(=O)(=O)O)ccc3c2C(=O)c2ccccc2C3=O)c1O,,> 100 µM,,> 100 µM,,> 100 µM,,> 100 µM,,> 100 µM,,> 100 µM,,> 100 µM,,> 100 µM,,> 100 µM,,> 100 µM
COc1cc(O)c(C(=O)/C=C/c2ccc(O)cc2)c(O)c1[C@@H]1C[C@H](CCc2ccc(O)cc2)O[C@H](c2ccc(O)cc2)C1,4.36 µM,20.3 µM,13.6 µM,28.9 µM,14.8 µM,61.2 µM,3.12,17.5 µM,3.62 µM,17.5 µM,3.14 µM,9.3 µM,3.77 µM,29.1 µM,3.85 µM,14.7 µM,2.51 µM,6.64 µM,2.47 µM,7.1 µM
NC(=O)c1cc(-c2ccc(F)cc2)cc(-c2ccncc2)c1N,> 25 µM,> 25 µM,13.7 µM,> 25 µM,19.9 µM,> 25 µM,> 25,> 25 µM,> 25 µM,> 25 µM,> 25 µM,> 25 µM,> 25 µM,> 25 µM,> 25 µM,> 25 µM,> 25 µM,> 25 µM,> 25 µM,> 25 µM
CCn1cc(C(=O)O)c(=O)c2cc3c(cc21)S(=O)(=O)CC3,,> 100 µM,,> 100 µM,,> 100 µM,,> 100 µM,,> 100 µM,,> 100 µM,,> 100 µM,,> 100 µM,,> 100 µM,,> 100 µM
COc1cc(OC)c(/C=C/c2cnc3ccccc3n2)c(OC)c1,,> 10 µM,,> 10 µM,,> 10 µM,,> 10 µM,,> 10 µM,,> 10 µM,,> 10 µM,,> 10 µM,,> 10 µM,,> 10 µM
CCCCCCCCCCCC1CCCC(C)N1 (configuration not stated),6.3 µM,23.9 µM and 131 µM,4.84 µM,19.5 µM and 116 µM,16.7 µM,36.9 µM and 166 µM,2.16,12.8 µM,5.88 µM,,8.49 µM,23.9 µM and 133 µM,13.8 µM,40.1 µM and 167 µM,11 µM,27.2 µM and 147 µM,2.95 µM,,13.7 µM,42.9 µM
Nc1nc(-c2ccccc2)nc2c1[n+]([O-])c1ccccc1[n+]2[O-],,> 100 µM,,> 100 µM,,> 100 µM,,> 100 µM,,> 100 µM,,> 100 µM,,> 100 µM,,> 100 µM,,> 100 µM,,> 100 µM
c1cc(CNCCN2CCNCC2)ccn1,,> 100 µM,,> 100 µM,,> 100 µM,,> 100 µM,,> 100 µM,,> 100 µM,,> 100 µM,,> 100 µM,,> 100 µM,,> 100 µM
C=C1CCC2C(C)(C)CCC[C@]2(C)[C@H]1CO (some centres not stated),19.8 µM,39.5 µM,> 100 µM,> 100 µM,94.5 µM,> 100 µM,41.7,> 100 µM,> 100 µM,> 100 µM,46.1 µM,> 100 µM,76.1 µM,> 100 µM,> 100 µM,> 100 µM,87.7 µM,> 100 µM,57.3 µM,> 100 µM
CC[C@@H](C(=O)[C@@H](C)[C@@H](O)[C@H](C)[C@@H]1O[C@@H]([C@@H](CC)C(=O)N(CC)CC)CC[C@@H]1C)C1O[C@]2(C=CC(=O)[C@]3(CC[C@@](C)([C@H]4CC[C@](O)(CC)[C@H](C)O4)O3)O2)[C@H](C)C[C@@H]1C (some centres not stated),2.41 µM,8.64 µM,2.18 µM,13.5 µM,2.21 µM,6.71 µM,2.59,9.44 µM,2.71 µM,7.85 µM,2.4 µM,6.91 µM,3.55 µM,> 100 µM,3.25 µM,80.9 µM,1.82 µM,3.68 µM,3.22 µM,15.9 µM
COC(=O)C1=C(C)NC(C)=C(C(=O)OC)C1/C=C(Cl)/C=C/c1ccccc1,19.2 µM,41.6 µM,20.7 µM,49.3 µM,24.8 µM,73.2 µM,42.9,> 100 µM,13.4 µM,50.4 µM,21.3 µM,41.6 µM,36 µM,> 100 µM,20.9 µM,58.8 µM,18.4 µM,39.5 µM,25.9 µM,70.5 µM
COC(=O)CCCC(=O)O,,> 100 µM,,> 100 µM,,> 100 µM,,> 100 µM,,> 100 µM,,> 100 µM,,> 100 µM,,> 100 µM,,> 100 µM,,> 100 µM
COc1ccc(/C(C#N)=C/c2ccc(OC)c(OC)c2)cc1,,> 100 µM,,> 100 µM,,> 100 µM,,> 100 µM,,> 100 µM,,> 100 µM,,> 100 µM,,> 100 µM,,> 100 µM,,> 100 µM
Fc1ccc(Nc2nc3nonc3nc2Nc2ccc(F)cc2)cc1,0.301 µM,3.01 µM,0.35 µM,10.8 µM,0.384 µM,13.9 µM,0.221,0.775 µM,0.285 µM,0.807 µM,0.264 µM,0.852 µM,0.402 µM,15.4 µM,0.505 µM,14.3 µM,0.395 µM,10.6 µM,0.509 µM,8.48 µM
O=C(NCc1ccc(Cn2c(=O)sn(-c3ccccc3)c2=O)cc1)OCc1ccc2c(Br)cc(Br)c(O)c2n1,0.703 µM,2.06 µM,0.404 µM,1.67 µM,1.02 µM,2.41 µM,1.71,5.66 µM,1.34 µM,2.82 µM,1.4 µM,3.06 µM,0.762 µM,2.44 µM,1.46 µM,2.88 µM,1.57 µM,3.47 µM,0.495 µM,1.08 µM
